Measurements from patent USRE46856E1, “Substituted 2,3-dihydroimidazo[1,2-c]quinazoline derivatives useful for treating hyper-proliferative disorders and diseases associated with angiogenesis” (Bayer Intellectual Property GmbH, priority 2006, dated 2018).
Structures can show the parent of a compound that is named as a salt.

How the values were obtained:
PI3Kβ = biological target: T1, PI3Kβ (Homo sapiens, UniProt P42338); test: Isozyme selectivity test: kinase assay of PI3Kβ (p110β assay); type: biochemical; conditions: recombinant truncated p110β, 7.5 ng protein/well
T1 construct: His6 (N); made in house; host or cells: S. frugiperda 9 (Sf9) insect cells
Excerpt: [Isozyme Selectivity Test in PI3K]
Determination of IC50 Values of Compounds in Kinase Assays of PI3Kβ and PI3Kγ

[1] = system: IGF-1 induced AKT phosphorylation in A549 cells; test: IGF-1 induced AKT phosphorylation assay (A549 cell assay); type: cell-based; conditions: Homo sapiens; A549 cells, 25 ng/ml IGF-1, phospho-AKT(Ser 473); read-out: average IC50 in the A549 cell assay
In short: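 A549 cells stimulated with 25 ng/ml IGF-1 for 10 min at 37 °C, then fixed in formaldehyde/methanol. Phospho-AKT detected by cell ELISA (primary anti-phospho-AKT, HRP secondary, ECL luminescence); IC50 from inhibition curve.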

PI3Kα = biological target: T2, PI3Kα (Homo sapiens, UniProt P42336); test: Solid-phase lipid kinase assay of PI3Kα (p110α assay); type: biochemical; conditions: recombinant truncated human p110α, 10 μM ATP
T2 construct: His6 (N); made in house; host or cells: S. frugiperda 9 (Sf9) insect cells
Excerpt: [Determination of IC50 Values of Compounds in Kinase Assay of PI3Kα]
LABORATORIES (Toronto, Canada). […] [γ^33P]ATP and unlabeled ATP were purchased from […] […] BIOTECH (Buckinghamshire, UK) and ROCHE DIAGNOSTICS (Mannheim, Germany), respectively. Scintillation cocktails and MicroScint PS™ were purchased from PACKARD (Meriden, Conn.). Maxisorp™ plates were purchased from NALGE NUNC INTERNATIONAL K.K. (Tokyo, Japan). All other chemicals not further specified were from WAKO PURE CHEMICALS (Osaka, Japan).
The plates were subsequently air-dried by incubation for at least 2 hours in a fume hood. The reaction was set up by mixing 25 μL/well of assay buffer 2×(100 mM MOPSO/NaOH, 0.2 M NaCl, pH 7.0, 8 mM MgCl2, 2 mg/mL BSA (fatty acid-free)), and 7.5 ng/well PI3Kα in the lipid pre-coated plate. 100× test compounds were added in 2% DMSO. The reaction was started by adding 20 μL/well of ATP mix (final 10 μM ATP; 0.05 μCi/well [γ^33P]ATP). After incubation at RT for 2 hours, the reaction was terminated by adding 50 μl/well stop solution (50 mM EDTA, pH 8.0). The plate was then washed twice with Tris-buffered saline (TBS, pH 7.4). MicroScint PS™ (PACKARD) scintillation mix was added at 100 μL/well, and radioactivity was counted using a TopCount™ (PACKARD) scintillation counter.
The inhibition percent at each concentration of compound was calculated, and IC50 values were determined from the inhibition of curve.

T1 sequence (P42338 109-1070): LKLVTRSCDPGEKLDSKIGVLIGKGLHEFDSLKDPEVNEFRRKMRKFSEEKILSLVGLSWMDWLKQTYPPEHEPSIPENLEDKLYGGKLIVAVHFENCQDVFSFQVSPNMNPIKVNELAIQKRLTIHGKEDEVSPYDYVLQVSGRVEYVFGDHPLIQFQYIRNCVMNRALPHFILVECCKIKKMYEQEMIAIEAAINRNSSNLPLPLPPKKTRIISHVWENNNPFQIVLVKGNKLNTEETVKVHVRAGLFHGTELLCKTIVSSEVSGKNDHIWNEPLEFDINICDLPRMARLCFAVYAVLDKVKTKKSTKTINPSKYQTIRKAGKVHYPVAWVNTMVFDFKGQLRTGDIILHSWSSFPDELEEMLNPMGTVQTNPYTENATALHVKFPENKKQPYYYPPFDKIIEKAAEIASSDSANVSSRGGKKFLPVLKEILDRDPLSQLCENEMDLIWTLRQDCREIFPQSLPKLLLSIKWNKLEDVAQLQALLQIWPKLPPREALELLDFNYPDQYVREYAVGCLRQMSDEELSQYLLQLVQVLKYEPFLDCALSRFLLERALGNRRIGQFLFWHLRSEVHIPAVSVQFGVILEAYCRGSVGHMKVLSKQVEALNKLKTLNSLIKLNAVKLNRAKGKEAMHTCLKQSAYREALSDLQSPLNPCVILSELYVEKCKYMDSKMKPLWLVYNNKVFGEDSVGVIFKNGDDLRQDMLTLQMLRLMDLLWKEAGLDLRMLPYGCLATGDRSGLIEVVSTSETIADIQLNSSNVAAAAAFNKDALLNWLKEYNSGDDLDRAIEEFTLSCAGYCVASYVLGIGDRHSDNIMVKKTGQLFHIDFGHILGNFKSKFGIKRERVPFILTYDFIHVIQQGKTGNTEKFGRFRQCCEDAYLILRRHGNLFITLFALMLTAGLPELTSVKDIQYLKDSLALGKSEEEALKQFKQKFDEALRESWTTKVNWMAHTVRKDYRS
T2 sequence (P42336 109-1068): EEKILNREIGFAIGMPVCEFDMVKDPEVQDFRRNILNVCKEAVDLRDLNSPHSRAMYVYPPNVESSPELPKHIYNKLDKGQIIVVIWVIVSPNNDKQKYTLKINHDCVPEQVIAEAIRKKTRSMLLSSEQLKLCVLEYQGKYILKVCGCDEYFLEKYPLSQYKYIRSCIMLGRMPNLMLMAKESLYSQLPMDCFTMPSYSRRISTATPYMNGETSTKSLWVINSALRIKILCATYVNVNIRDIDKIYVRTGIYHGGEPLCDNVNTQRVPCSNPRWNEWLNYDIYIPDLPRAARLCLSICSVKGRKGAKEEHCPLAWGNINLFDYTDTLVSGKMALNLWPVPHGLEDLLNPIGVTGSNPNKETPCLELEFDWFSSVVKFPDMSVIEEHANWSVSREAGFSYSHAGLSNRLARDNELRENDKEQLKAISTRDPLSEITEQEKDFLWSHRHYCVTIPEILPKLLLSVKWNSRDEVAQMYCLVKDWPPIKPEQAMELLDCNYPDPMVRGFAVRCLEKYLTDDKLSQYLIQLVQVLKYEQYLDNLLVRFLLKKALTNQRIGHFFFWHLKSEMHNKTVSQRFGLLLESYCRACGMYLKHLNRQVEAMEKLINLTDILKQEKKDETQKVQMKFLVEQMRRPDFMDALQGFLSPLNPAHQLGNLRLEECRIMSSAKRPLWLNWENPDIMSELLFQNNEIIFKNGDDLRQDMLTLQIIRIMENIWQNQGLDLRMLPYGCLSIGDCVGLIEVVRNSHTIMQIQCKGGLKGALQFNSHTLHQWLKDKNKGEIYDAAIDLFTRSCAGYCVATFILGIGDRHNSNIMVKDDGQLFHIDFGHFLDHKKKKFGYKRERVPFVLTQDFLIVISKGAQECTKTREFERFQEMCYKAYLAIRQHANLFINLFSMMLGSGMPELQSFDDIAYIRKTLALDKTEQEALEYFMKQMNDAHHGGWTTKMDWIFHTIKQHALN

Compound	IC50 (PI3Kβ) [nM]	IC50 [1] [nM]	IC50 (PI3Kα) [nM]
COc1c(OCCCN2CCOCC2)ccc2c1N=C(NC(=O)c1ccncn1)N1CCN=C21 [Example 24, N-[7-methoxy-8-(3-morpholin-4-ylpropoxy)-2,3-dihydroimidazo[1,2-c]quinazolin-5-yl]pyrimidine-4-carboxamide]	> 100	> 1000	> 100
COCCCNc1ncc(C(=O)NC2=Nc3c(ccc(OCCCN4CCOCC4)c3OC)C3=NCCN23)cn1 [Example 41, N-[7-methoxy-8-(3-morpholin-4-ylpropoxy)-2,3-dihydroimidazo[1,2-c]quinazolin-5-yl]-2-[(3-methoxypropyl)amino]pyrimidine-5-carboxamide]	10 to 100	100 to 1000	10 to 100
COc1c(OCCCN2CCOCC2)ccc2c1N=C(NC(=O)c1cnc(NCCCN3CCOCC3)nc1)N1CCN=C21 [Example 43, N-[7-methoxy-8-(3-morpholin-4-ylpropoxy)-2,3-dihydroimidazo[1,2-c]quinazolin-5-yl]-2-[(3-morpholin-4-ylpropyl)amino]pyrimidine-5-carboxamide]	10 to 100	> 1000	10 to 100
COc1c(OCCCN2CCOCC2)ccc2c1N=C(NC(=O)c1cnc(N3CCCC3)nc1)N1CCN=C21 [Example 47, N-[7-methoxy-8-(3-morpholin-4-ylpropoxy)-2,3-dihydroimidazo[1,2-c]quinazolin-5-yl]-2-pyrrolidin-1-ylpyrimidine-5-carboxamide]	10 to 100	< 100	10 to 100
COc1c(OCCCN2CCOCC2)ccc2c1N=C(NC(=O)c1cnc(N3CCN(C)CC3)nc1)N1CCN=C21 [Example 48, N-[7-methoxy-8-(3-morpholin-4-ylpropoxy)-2,3-dihydroimidazo[1,2-c]quinazolin-5-yl]-2-(4-methylpiperazin-1-yl)pyrimidine-5-carboxamide]	> 100	> 1000	> 100
COc1c(OCCCN2CCOCC2)ccc2c1N=C(NC(=O)c1ccc(N3CCNCC3)nc1)N1CCN=C21 [Example 50, N-[7-methoxy-8-(3-morpholin-4-ylpropoxy)-2,3-dihydroimidazo[1,2-c]quinazolin-5-yl]-6-piperazin-1-ylnicotinamide hydrochloride]	10 to 100	> 1000	10 to 100
COc1c(OCCCN2CCOCC2)ccc2c1N=C(NC(=O)c1ccc(NCc3ccc(F)cc3)nc1)N1CCN=C21 [Example 53, 6-[(4-fluorobenzyl)amino]-N-[7-methoxy-8-(3-morpholin-4-ylpropoxy)-2,3-dihydroimidazo[1,2-c]quinazolin-5-yl]nicotinamide]	10 to 100	> 1000	10 to 100
COc1c(OCCCN2CCOCC2)ccc2c1N=C(NC(=O)c1ccc(-n3cccc3)nc1)N1CCN=C21 [Example 56, N-[7-methoxy-8-(3-morpholin-4-ylpropoxy)-2,3-dihydroimidazo[1,2-c]quinazolin-5-yl]-6-(1H-pyrrol-1-yl)nicotinamide]	10 to 100	> 1000	10 to 100
COc1c(OCCCN2CCOCC2)ccc2c1N=C(NC(=O)c1ccc(N3CCOCC3)nc1)N1CCN=C21 [Example 57, N-[7-methoxy-8-(3-morpholin-4-ylpropoxy)-2,3-dihydroimidazo[1,2-c]quinazolin-5-yl]-6-morpholin-4-ylnicotinamide]	10 to 100	100 to 1000	10 to 100
COc1c(OCCCN2CCOCC2)ccc2c1N=C(NC(=O)c1ccc(NC(=O)C(C)(C)C)nc1)N1CCN=C21 [Example 59, 6-[(2,2-dimethylpropanoyl)amino]-N-[7-methoxy-8-(3-morpholin-4-ylpropoxy)-2,3-dihydroimidazo[1,2-c]quinazolin-5-yl]nicotinamide]	> 100	> 1000	> 100

Further lines, results first:

IC50 (PI3Kβ) [nM]	IC50 [1] [nM]	IC50 (PI3Kα) [nM]	Compound
< 10	< 100	< 10	COCCN1CCOC(CCOc2ccc3c(c2OC)N=C(NC(=O)c2cccnc2)N2CCN=C32)C1 (stereo not drawn) [Example 20, N-(7-methoxy-8-{2-[4-(2-methoxyethyl)morpholin-2-yl]ethoxy}-2,3-dihydroimidazo[1,2-c]quinazolin-5-yl)nicotinamide]
10 to 100	< 100	10 to 100	CCN1CCOC(COc2ccc3c(c2OC)N=C(NC(=O)c2cccnc2)N2CCN=C32)C1 (stereo not drawn) [Example 21, N-{8-[(4-ethylmorpholin-2-yl)methoxy]-7-methoxy-2,3-dihydroimidazo[1,2-c]quinazolin-5-yl}nicotinamide]
10 to 100	> 1000	10 to 100	COc1c(OCCCN2CCOCC2)ccc2c1N=C(NC(=O)c1ccnc(N)n1)N1CCN=C21 [Example 25, 2-amino-N-[7-methoxy-8-(3-morpholin-4-ylpropoxy)-2,3-dihydroimidazo[1,2-c]quinazolin-5-yl]pyrimidine-4-carboxamide]
10 to 100	> 1000	10 to 100	COc1c(OCCCN2CCOCC2)ccc2c1N=C(NC(=O)c1cn(C)cn1)N1CCN=C21 [Example 26, N-[7-methoxy-8-(3-morpholin-4-ylpropoxy)-2,3-dihydroimidazo[1,2-c]quinazolin-5-yl]-1-methyl-1H-imidazole-4-carboxamide]
< 10	< 100	< 10	COc1c(OCCCN2C[C@@H](C)O[C@@H](C)C2)ccc2c1N=C(NC(=O)c1cncnc1)N1CCN=C21 [Example 27, rel-N-(8-{3-[(2R,6S)-2,6-dimethylmorpholin-4-yl]propoxy}-7-methoxy-2,3-dihydroimidazo[1,2-c]quinazolin-5-yl)pyrimidine-5-carboxamide]
< 10	< 100	< 10	COc1c(OCCCN2C[C@@H](C)O[C@@H](C)C2)ccc2c1N=C(NC(=O)c1ccc(C)nc1)N1CCN=C21 [Example 28, rel-N-(8-{3-[(2R,6S)-2,6-dimethylmorpholin-4-yl]propoxy}-7-methoxy-2,3-dihydroimidazo[1,2-c]quinazolin-5-yl)-6-methylnicotinamide]
< 10	< 100	< 10	COc1c(OCCCN2C[C@@H](C)O[C@@H](C)C2)ccc2c1N=C(NC(=O)c1ccc(NC(C)=O)nc1)N1CCN=C21 [Example 29, rel-6-acetamido-N-(8-{3-[(2R,6S)-2,6-dimethylmorpholin-4-yl]propoxy}-7-methoxy-2,3-dihydroimidazo[1,2-c]quinazolin-5-yl)nicotinamide]
< 10	< 100	< 10	COc1c(OCCCN2C[C@@H](C)O[C@@H](C)C2)ccc2c1N=C(NC(=O)c1cnc(N)nc1)N1CCN=C21 [Example 38, rel-2-amino-N-(8-{3-[(2R,6S)-2,6-dimethylmorpholin-4-yl]propoxy}-7-methoxy-2,3-dihydroimidazo[1,2-c]quinazolin-5-yl)pyrimidine-5-carboxamide]
< 10	< 100	< 10	COc1c(OCCCN2C[C@@H](C)O[C@@H](C)C2)ccc2c1N=C(NC(=O)c1ccc(N)nc1)N1CCN=C21 [Example 39, rel-6-amino-N-(8-{3-[(2R,6S)-2,6-dimethylmorpholin-4-yl]propoxy}-7-methoxy-2,3-dihydroimidazo[1,2-c]quinazolin-5-yl)nicotinamide]
